# Assay results as given in patent publication US5770617A, “Terbenzimidazoles useful as antifungal agents” (Rutgers, The State University of New Jersey, priority 1997, dated 1998).
# “Also recorded” adds a separate entry of the source.
# Experiments:
# [1] = system: CPT-K5 (camptothecin-resistant variant of RPMI 8402); experiment: MTT cytotoxicity assay, CPT-K5; format: cell-based, human
# Protocol: The cytotoxicity was determined using the as MTT-microtiter plate tetrazolinium cytotoxicity assay (MTA) following the procedures of F. Denizot et al., J. Immunol. Methods, 89, 271 (1986); J. Carmichael et al., Cancer Res, 47, 936 (1987) and T. J. Mosmann et al., Immunol. Methods, 65, 55 (1983). The human lymphoblast RPMI 8402 and its camptothecin-resistant variant cell line, CPT-K5 were provided by Dr. Toshiwo Andoh (Aichi Cancer Center Research Institute, Nagoya, Japan). See, for example, T. Andoh et al., Adv. Pharmacol., 29B, 93 (1994). The cytotoxicity assay was performed using 96-well microtiter plates. Cells were grown in suspension at 37 ° C. in 5% CO2 and maintained by regular passage in RPMI medium supplemented with 10% heat inactivated fetal bovine serum, L-glutamine (2 mM), penicillin (100 U/ml), and streptomycin (0.1 mg/ml). For determination of IC50, cells were exposed continuously with varying concentrations of drug concentrations and MTT assays were performed at the end of the fourth day.
# [2] = target: T1, Aspergillus topoisomerase I (Aspergillus nidulans, UniProt Q5BGS7); experiment: Topoisomerase I cleavage assay, Aspergillus enzyme; format: biochemical; conditions: for inhibition (poisoning) of Aspergillus topoisomerase I, in words: DNA cleavage assay; for concentration at which extensive DNA cleavage was observed: DNA cleavage with Aspergillus topoisomerase I; for sensitivity of Aspergillus versus human topoisomerase I: cleavage assay, Aspergillus 60 units/reaction, human 150 units/reaction
# T1 construct: about 105 kDa by phosphate transfer
# T1 sequence (Q5BGS7 1-871): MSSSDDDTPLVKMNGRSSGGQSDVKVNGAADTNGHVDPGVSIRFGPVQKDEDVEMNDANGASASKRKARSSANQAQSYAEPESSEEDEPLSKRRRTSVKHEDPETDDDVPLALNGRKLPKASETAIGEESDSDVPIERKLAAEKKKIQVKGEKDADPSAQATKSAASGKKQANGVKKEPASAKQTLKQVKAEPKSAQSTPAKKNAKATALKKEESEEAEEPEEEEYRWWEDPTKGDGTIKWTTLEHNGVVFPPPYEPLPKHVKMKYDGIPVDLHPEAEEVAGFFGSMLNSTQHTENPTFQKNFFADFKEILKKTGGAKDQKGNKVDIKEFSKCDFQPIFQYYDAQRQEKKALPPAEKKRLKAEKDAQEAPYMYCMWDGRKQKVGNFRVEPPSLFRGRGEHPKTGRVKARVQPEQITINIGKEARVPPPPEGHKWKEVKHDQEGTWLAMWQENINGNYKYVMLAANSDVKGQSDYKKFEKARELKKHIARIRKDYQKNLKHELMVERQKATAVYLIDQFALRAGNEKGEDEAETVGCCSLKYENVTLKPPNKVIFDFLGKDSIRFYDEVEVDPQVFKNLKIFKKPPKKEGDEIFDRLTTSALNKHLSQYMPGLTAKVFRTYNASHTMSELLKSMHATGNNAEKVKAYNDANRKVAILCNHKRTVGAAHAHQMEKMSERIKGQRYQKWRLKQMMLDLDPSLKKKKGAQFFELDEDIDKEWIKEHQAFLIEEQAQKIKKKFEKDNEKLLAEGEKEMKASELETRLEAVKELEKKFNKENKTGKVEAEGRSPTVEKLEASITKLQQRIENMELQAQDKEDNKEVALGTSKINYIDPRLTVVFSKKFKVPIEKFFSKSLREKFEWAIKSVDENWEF
SMILES,"effect against camptothecin-resistant CPT-K5 cells, in words [1]","inhibition (poisoning) of Aspergillus topoisomerase I, in words ([2]; listed as Ho33342)",concentration at which extensive DNA cleavage was observed [2] [mg/mL],topoisomerase I-mediated DNA cleavage at the highest concentration ([2]; Ho33342 10 mg/ml),"inhibition (poisoning) of Aspergillus topoisomerase I, in words [2]",sensitivity of Aspergillus versus human topoisomerase I [2],sensitivity of Aspergillus versus human topoisomerase I ([2]; listed as CPT)
"CCOc1ccc(-c2nc3cc(-c4nc5cc(N6CCN(C)CC6)ccc5[nH]4)ccc3[nH]2)cc1 [Hoechst 33342, 2'-(4-ethoxyphenyl)-5-(4-methyl-1-piperazinyl)-2,5'-bi-1H-benzimidazole]",effective,potent inhibitors; also recorded: selective sensitivity; also recorded: sensitive,≤ 0.1,dramatically inhibited,,,
"c1ccc(-c2ccc3[nH]c(-c4ccc5[nH]c(-c6ccc7[nH]cnc7c6)nc5c4)nc3c2)cc1 [Compound 13, 5-Phenyl-2-[2'(benzimidazol-5""-yl)benzimidazol-5'-yl]benzimidazole]",effective,,,,strongly inhibited (poisoned); also recorded: sensitive,substantially more sensitive,
CC[C@@]1(O)C(=O)OCc2c1cc1n(c2=O)Cc2cc3ccccc3nc2-1 [camptothecin],,,≤ 1.0,,potent inhibitors; also recorded: sensitive,less active against the Aspergillus than the human enzyme,less sensitive to CPT than the human enzyme
"N#Cc1ccc2[nH]c(-c3ccc4[nH]c(-c5ccc6[nH]cnc6c5)nc4c3)nc2c1 [Compound 11, 5-Cyano-2-[2'-(benzimidazol-5""-yl)benzimidazol-5'-yl]benzimidazole]",,,,,strongly inhibited (poisoned); also recorded: sensitive,more active against the Aspergillus than the human enzyme,
